Data taken from PMC8205603, “Simultaneous Quantification of Pioglitazone and Omarigliptin in Rat Plasma by UHPLC-MS/MS and Its Application to Pharmacokinetic Study after Coadministration of the Two Drugs” (Journal of Analytical Methods in Chemistry, 2021).
Counter-ions that a name gives are not always drawn. Like-named read-outs stand apart in the source and are kept apart here.

How the values were obtained:
[1] = Pharmacokinetics study in rats after single or combined intragastric administration; type: in vivo, Sprague-Dawley rats; details: plasma, male SD rats
Protocol: Fifteen male Sprague-Dawley rats (6-8 weeks old, 190-210 g) were purchased from Jinan Pengyue Laboratory Animal Technology Co., Ltd. (Jinan, China). The animal certification number was 3707262011004044 and the production license number was SCXK (Lu) 20190003. Before the formal experiment, all rats were adaptively fed for one week at a temperature of 24 ± 2°C and a humidity of 55 ± 5% and then were randomly divided into three groups. In order to guarantee animal welfare, Animal Experiments Guidelines of Yantai Institute of Materia Medica (Yantai, China) was enforced. Pioglitazone and omarigliptin were suspended into 0.5% carboxymethyl cellulose sodium salt (CMC-Na) for intragastric administration. The dosage for rats was calculated based on the clinical dose. […] About 200 μL whole blood was collected into the heparinized tube at 0 min (pre-dose), 15 min, 30 min, 1 […], and 48 h and centrifugated immediately to collect plasma. All plasma samples were frozen at -20°C until analysis. Samples were processed and analyzed by the validated method. Data were acquired and analyzed by Xcalibur 4.1 software (Thermo Fisher Scientific, Massachusetts, USA). Pharmacokinetic parameters were calculated based on noncompartmental model using Phoenix WinNonlin 7.0 (Pharsight, Mountain View, CA). All data were shown as mean ± SD.

[2] = Stability of QC samples in rat plasma under different storage conditions; type: physicochemical; details: n = 5
Protocol: Different concentrations of working solutions were diluted 20 times with blank rat plasma to prepare corresponding calibration samples. Final concentrations of calibration samples were 5, 25, 50, 100, 250, 500, 1000, and 2000 ng/mL for pioglitazone and 10, 50, 100, 200, 500, 1000, 2000, and 4000 ng/mL for omarigliptin. Quality control (QC) samples (5, 15, 400, 1500 ng/mL for pioglitazone and 10, 30, 800, 3000 ng/mL for omarigliptin) were prepared as the same way. All plasma samples were stored at −20°C until analysis.
QC samples with low, medium, and high concentrations were analyzed under different conditions, such as kept at room temperature for 6 h, frozen and thawed for three cycles, and frozen at −20°C for 7 days. The postextraction samples were stored in autosampler at 10°C for 24 hours and then reinjected to evaluate the autosampler stability. The measured concentrations were calculated according to the following standard curve. RE (%) and RSD (%) should be within ±15%.

[3] = male, Sprague-Dawley, rat, po, 2.6 mg/kg, omarigliptin 2.6 mg/kg in combination with pioglitazone 2.6 mg/kg, intragastric, n = 5
[4] = male, Sprague-Dawley, rat, po, 2.6 mg/kg, omarigliptin 2.6 mg/kg intragastric, single administration, n = 5
[5] = Auto-sampler stability (10°C for 24 h), postextraction samples, nominal 30 ng/mL omarigliptin
[6] = Auto-sampler stability (10°C for 24 h), postextraction samples, nominal 800 ng/mL omarigliptin
[7] = Auto-sampler stability (10°C for 24 h), postextraction samples, nominal 3000 ng/mL omarigliptin
[8] = Freeze (−20°C for 7 days), rat plasma, nominal 30 ng/mL omarigliptin
[9] = Freeze (−20°C for 7 days), rat plasma, nominal 800 ng/mL omarigliptin
[10] = Freeze (−20°C for 7 days), rat plasma, nominal 3000 ng/mL omarigliptin
[11] = Room temperature for 6 h, rat plasma, nominal 30 ng/mL omarigliptin
[12] = Room temperature for 6 h, rat plasma, nominal 800 ng/mL omarigliptin
[13] = Room temperature for 6 h, rat plasma, nominal 3000 ng/mL omarigliptin
[14] = Three freeze-thaw cycles, rat plasma, nominal 30 ng/mL omarigliptin
[15] = Three freeze-thaw cycles, rat plasma, nominal 800 ng/mL omarigliptin
[16] = Three freeze-thaw cycles, rat plasma, nominal 3000 ng/mL omarigliptin
[17] = male, Sprague-Dawley, rat, po, 2.6 mg/kg, pioglitazone 2.6 mg/kg in combination with omarigliptin 2.6 mg/kg, intragastric, n = 5
[18] = male, Sprague-Dawley, rat, po, 2.6 mg/kg, pioglitazone 2.6 mg/kg intragastric, single administration, n = 5
[19] = Auto-sampler stability (10°C for 24 h), postextraction samples, nominal 15 ng/mL pioglitazone
[20] = Auto-sampler stability (10°C for 24 h), postextraction samples, nominal 400 ng/mL pioglitazone
[21] = Auto-sampler stability (10°C for 24 h), postextraction samples, nominal 1500 ng/mL pioglitazone
[22] = Freeze (−20°C for 7 days), rat plasma, nominal 15 ng/mL pioglitazone
[23] = Freeze (−20°C for 7 days), rat plasma, nominal 400 ng/mL pioglitazone
[24] = Room temperature for 6 h, rat plasma, nominal 15 ng/mL pioglitazone
[25] = Room temperature for 6 h, rat plasma, nominal 400 ng/mL pioglitazone
[26] = Room temperature for 6 h, rat plasma, nominal 1500 ng/mL pioglitazone
[27] = Three freeze-thaw cycles, rat plasma, nominal 15 ng/mL pioglitazone
[28] = Three freeze-thaw cycles, rat plasma, nominal 400 ng/mL pioglitazone
[29] = Three freeze-thaw cycles, rat plasma, nominal 1500 ng/mL pioglitazone

CS(=O)(=O)n1cc2c(n1)CN([C@H]1CO[C@H](c3cc(F)ccc3F)[C@@H](N)C1)C2 [Omarigliptin]
AUC(0-inf) [1, 3]: 31300 ± 3820 ng·h/mL
AUC(0-t) [1, 3]: 30400 ± 3760 ng·h/mL
Cmax [1, 3]: 2520 ± 435 ng/mL
Tmax ([1]; male, Sprague-Dawley, rat, po, 2.6 mg/kg, omarigliptin 2.6 mg/kg in combination with pioglitazone 2.6 mg/kg, intragastric, n = 5, read-out: t max): 1.8 ± 0.4 h
AUC(0-inf) [1, 4]: 37700 ± 4100 ng·h/mL
AUC(0-t) [1, 4]: 36600 ± 4060 ng·h/mL
Cmax [1, 4]: 3000 ± 394 ng/mL
Tmax ([1]; male, Sprague-Dawley, rat, po, 2.6 mg/kg, omarigliptin 2.6 mg/kg intragastric, single administration, n = 5, read-out: t max): 1.5 ± 0.7 h
t 1/2 ([1]; omarigliptin 2.6 mg/kg intragastric, single administration, n = 5): 10.9 ± 0.5 h
Accuracy (RE %) [2, 5]: 6.70%
Measured concentrations [2, 5]: 32.01 ± 2.13 ng/mL
Accuracy (RE %) [2, 6]: −4.69%
Measured concentrations [2, 6]: 762.47 ± 4.84 ng/mL
Accuracy (RE %) [2, 7]: −0.09%
Measured concentrations [2, 7]: 2997.38 ± 9.39 ng/mL
Accuracy (RE %) [2, 8]: −4.79%
Measured concentrations [2, 8]: 28.56 ± 0.11 ng/mL
Accuracy (RE %) [2, 9]: 0.28%
Measured concentrations [2, 9]: 802.26 ± 4.01 ng/mL
Accuracy (RE %) [2, 10]: −10.36%
Measured concentrations [2, 10]: 2689.12 ± 45.57 ng/mL
Accuracy (RE %) [2, 11]: 0.05%
Measured concentrations [2, 11]: 30.01 ± 0.40 ng/mL
Accuracy (RE %) [2, 12]: −7.74%
Measured concentrations [2, 12]: 738.06 ± 4.52 ng/mL
Accuracy (RE %) [2, 13]: −2.07%
Measured concentrations [2, 13]: 2937.89 ± 7.68 ng/mL
Accuracy (RE %) [2, 14]: −5.13%
Measured concentrations [2, 14]: 28.46 ± 0.25 ng/mL
Accuracy (RE %) [2, 15]: −0.68%
Measured concentrations [2, 15]: 794.54 ± 9.37 ng/mL
Accuracy (RE %) [2, 16]: −10.98%
Measured concentrations [2, 16]: 2670.56 ± 16.54 ng/mL

CCc1ccc(CCOc2ccc(CC3SC(=O)NC3=O)cc2)nc1 (stereo not drawn) [Pioglitazone, Pioglitazone hydrochloride]
AUC(0-inf) [1, 17]: 19000 ± 2600 ng·h/mL
AUC(0-t) [1, 17]: 19000 ± 2580 ng·h/mL
Cmax [1, 17]: 2460 ± 754 ng/mL
half-life [1, 17]: 2.1 ± 0.2 h
AUC(0-inf) [1, 18]: 17000 ± 2130 ng·h/mL
AUC(0-t) [1, 18]: 16900 ± 2210 ng·h/mL
Cmax [1, 18]: 2550 ± 475 ng/mL
half-life [1, 18]: 2.8 ± 1 h
Tmax ([1]; male, Sprague-Dawley, rat, po, 2.6 mg/kg, pioglitazone 2.6 mg/kg intragastric, single administration, n = 5, read-out: t max): 1.8 ± 0.4 h
Tmax ([1]; pioglitazone 2.6 mg/kg in combination with omarigliptin 2.6 mg/kg, intragastric, n = 5): 2.0 ± 0 h
Accuracy (RE %) [2, 19]: 3.95%
Measured concentrations [2, 19]: 15.59 ± 1.05 ng/mL
Accuracy (RE %) [2, 20]: −9.17%
Measured concentrations [2, 20]: 363.31 ± 1.73 ng/mL
Accuracy (RE %) [2, 21]: −5.24%
Measured concentrations [2, 21]: 1421.47 ± 7.30 ng/mL
Accuracy (RE %) [2, 22]: −8.77%
Measured concentrations [2, 22]: 13.68 ± 0.10 ng/mL
Accuracy (RE %) [2, 23]: 0.24%
Measured concentrations [2, 23]: 400.95 ± 1.64 ng/mL
Measured concentrations ([2]; Freeze (−20°C for 7 days), rat plasma, nominal 1500 ng/mL pioglitazone): 1328.31 ± 5.99 ng/mL
Accuracy (RE %) [2, 24]: −4.62%
Measured concentrations [2, 24]: 14.31 ± 0.34 ng/mL
Accuracy (RE %) [2, 25]: −9.56%
Measured concentrations [2, 25]: 361.75 ± 1.91 ng/mL
Accuracy (RE %) [2, 26]: −5.41%
Measured concentrations [2, 26]: 1418.82 ± 5.26 ng/mL
Accuracy (RE %) [2, 27]: −8.12%
Measured concentrations [2, 27]: 13.78 ± 0.11 ng/mL
Accuracy (RE %) [2, 28]: 0.52%
Measured concentrations [2, 28]: 402.08 ± 1.11 ng/mL
Accuracy (RE %) [2, 29]: −11.10%
Measured concentrations [2, 29]: 1333.57 ± 7.61 ng/mL
